Test results taken from US12605361B2, “Carboxylated psilocybin derivatives and methods of using” (Enveric Biosciences Canada Inc., priority 2020, dated 2026).

Legend:
5-HT1A receptor = target: T1, 5-HT1A receptor (Homo sapiens, UniProt P08908); test: cAMP-Glo assay of 5-HT1A activation in +5-HT1A cells (CHO-K1/5-HT1A/Gα15); format: cell-based; conditions: for 5-HT1A activity from luminescence (cAMP) trend: +5HT1A cell culture, FIG. 14B, 14C; for 5-HT1A binding activity from % cAMP levels trend: +5HT1A cell cultures
T1 construct: host or cells: CHO-K1 stably expressing 5-HT1A and Gα15
T1 sequence (P08908 1-422): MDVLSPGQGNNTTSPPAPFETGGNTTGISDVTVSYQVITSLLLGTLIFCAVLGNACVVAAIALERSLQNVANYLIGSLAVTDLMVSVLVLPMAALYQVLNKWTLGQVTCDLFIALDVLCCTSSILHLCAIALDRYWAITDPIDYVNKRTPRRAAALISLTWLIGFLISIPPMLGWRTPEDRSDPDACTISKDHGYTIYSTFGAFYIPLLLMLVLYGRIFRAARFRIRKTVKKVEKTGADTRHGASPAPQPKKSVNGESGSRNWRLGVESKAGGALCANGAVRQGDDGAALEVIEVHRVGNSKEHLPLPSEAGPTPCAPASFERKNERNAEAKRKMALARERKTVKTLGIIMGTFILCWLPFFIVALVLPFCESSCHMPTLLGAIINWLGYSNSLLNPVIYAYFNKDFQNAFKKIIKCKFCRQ
Excerpt: (§1) CHO-K1/Gα15 (GenScript, M00257) (−5-HT1A) and CHO-K1/5-HT1A/Gα15 (GenScript, M00330) (+5-HT1A) cells lines were used. Briefly, CHO-K1/Gα15 is a control cell line that constitutively expresses Gα15 which is a promiscuous Gq protein. This control cell line lacks any transgene encoding 5-HT1A receptors, but still responds to forskolin; thus, cAMP response to forskolin should be the same regardless of whether or not 5-HT1A agonists are present. Conversely, CHO-K1/5-HT1A/Gα15 cells stably express 5-HT1A receptor in the CHO-K1 host background. […] In +5-HT1A cells, Gα15 may be recruited in place of Gαi/o, which could theoretically dampen cAMP response (Rojas and Fiedler 2016, Front Cell Neurosci 10: 272). […] In contrast, tryptophan is not known to activate 5-HT1A receptors, and was thus used as a negative control. Cells were maintained in complete growth media as recommended by supplier (GenScript) which is constituted as follows: Ham's F12 Nutrient mix (HAM's F12, GIBCO #11765-047) with 10% fetal bovine serum (FBS) (Thermo Scientific #12483020), 200 μg/ml zeocin (Thermo Scientific #R25005) and/or 100 μg/ml hygromycin (Thermo Scientific #10687010). The cells were cultured in a humidified incubator with 37° C. and 5% CO2. Cells maintenance was carried out as recommended by the cell supplier. Briefly, vials with cells were removed from the liquid nitrogen and thawed quickly in 37° C. water bath. Just before the cells were completely thawed the vial's outside was decontaminated by 70% ethanol spray. The cell suspension was then retrieved from the vial and added to warm (37° C.) complete growth media, and centrifuged at 1,000 rpm for 5 minutes. The supernatant was discarded, and the cell pellet was then resuspended in another 10 ml of complete growth media, and added to the 10 cm cell culture dish (Greiner Bio-One #664160). The media was changed every third day until the cells were about 90% confluent. The ˜90% confluent cells were then split 10:1 for maintenance or used for experiment.
The change in intracellular cAMP levels due to the treatment of novel molecules was measured using cAMP-Glo Assay kit (Promega #V1501). Briefly, +5-HT1A cells were seeded on 1-6 columns and base −5-HT1A cells were seeded on columns 7-12 of the white walled clear bottom 96-well plate (Corning, #3903). Both cells were seeded at the density of 30,000 cells/well in 100 μl complete growth media and cultured 24 hrs in humidified incubator at 37° C. and 5% CO2. On the experiment day, the media of cells was replaced with serum/antibiotic free culture media. Then the cells were treated for 20 minutes with test molecules dissolved in induction medium ([…], 500 μM IBMX (isobutyl-1-methylxanthine, Sigma-Aldrich, Cat. #17018) and 100 μM (RO 20-1724, Sigma-Aldrich, Cat. #B8279)). Forskolin induced cAMP formation whereas IBMX and RO 20-1724 inhibited the degradation of cAMP. PKA was added to the lysate, mixed, and subsequently the substrate of the PKA was added. PKA was activated by cAMP, and the amount of ATP consumed due to PKA phosphorylation directly corresponded to cAMP levels in the lysate. Reduced ATP caused reduced conversion of luciferin to oxyluciferin, conferring diminished luminescence as the result of 5-HT1A activation. […] Note that compound (VI) is shown simply as (VI) along the x-axis. For FIGS A-C, error bars represent results of three experiments (n=3).

5-HT2A receptor = target: T2, 5-HT2A receptor (Homo sapiens, UniProt P28223); test: [3H]ketanserin competition binding assay (SPA) on membranes containing 5-HT2A; conditions: fixed (1 nM) [3H]ketanserin; FIG. 13B, 13C
T2 construct: purchased PerkinElmer ES-313-M400UA
T2 sequence (P28223 whole entry): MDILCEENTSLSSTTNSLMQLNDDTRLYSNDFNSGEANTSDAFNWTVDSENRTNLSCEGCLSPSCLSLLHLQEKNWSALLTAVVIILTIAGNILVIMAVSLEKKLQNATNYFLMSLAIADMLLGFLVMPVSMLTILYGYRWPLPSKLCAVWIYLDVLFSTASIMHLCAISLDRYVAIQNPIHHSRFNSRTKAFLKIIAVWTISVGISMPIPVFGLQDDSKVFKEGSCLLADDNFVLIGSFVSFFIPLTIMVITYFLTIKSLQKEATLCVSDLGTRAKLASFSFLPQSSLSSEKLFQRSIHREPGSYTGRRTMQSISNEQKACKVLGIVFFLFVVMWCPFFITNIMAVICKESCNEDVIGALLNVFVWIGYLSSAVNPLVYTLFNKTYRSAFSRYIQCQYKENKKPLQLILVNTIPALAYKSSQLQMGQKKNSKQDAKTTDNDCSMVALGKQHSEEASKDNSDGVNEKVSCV
Excerpt: Evaluation of drug binding is an essential step to characterization of all drug-target interactions (Fang 2012, Exp Opin Drug Discov 7:969). The binding affinity of a drug to a target is traditionally viewed as an acceptable surrogate of its in vivo efficacy (Núñez et al., 2012, Drug Disc Today 17: 10). Competition assays, also called displacement or modulation binding assays, are a common approach to measure activity of a ligand at a target receptor (Flanagan 2016, Methods Cell Biol 132: 191). In these assays, standard radioligands acting either as agonists or antagonists are ascribed to specific receptors. […] After incubation, the samples were read on a MicroBeta 2 Microplate Counter (Perkin Elmer). […] Equilibrium binding constants for ketanserin (Kd) were determined from saturation binding curves using the ‘one-site saturation binding analysis’ method of GraphPad PRISM software (Version 9.2.0). […] Ki values were calculated from the competition displacement data using the competitive binding analysis from GraphPad PRISM software. […] Specific binding in counts per minute (cpm) was calculated by subtracting non-specific binding from total binding. Specific binding (pmol/mg) was calculated from μmol of [^3H]ketanserin bound per mg of protein in the assay. The Kd was calculated by fitting the data with the one-site binding model of PRISM software (version 9.2.0).

[1] = tested on: CHO-K1/Gα15 (−5-HT1A) cells; test: cAMP-Glo assay in −5-HT1A control cells (CHO-K1/Gα15); format: cell-based; conditions: −5HT1A cell cultures (control without 5-HT1A receptor); FIG. 14D-14F
Excerpt: as §1, with “The cell suspension was then retrieved from the vial and added to warm (37° C.) complete growth media, and centrifuged at 1,000 rpm for 5 minutes. The supernatant was discarded, and the cell pellet was then resuspended in another 10 ml of complete growth media, and added to the 10 cm cell culture dish (Greiner Bio-One #664160). The media was changed every third day until the cells were about 90% confluent. The ˜90% confluent cells were then split 10:1 for maintenance or used for experiment.” left out
As 5-HT1A activation inhibits cAMP formation, the agonist activity of test molecules on 5-HT1A was measured via the reduction in the levels of cAMP produced due to application of 4 μM forskolin. The change in intracellular cAMP levels due to the treatment of novel molecules was measured using cAMP-Glo Assay kit (Promega #V1501). […] Reduced ATP caused reduced conversion of luciferin to oxyluciferin, conferring diminished luminescence as the result of 5-HT1A activation. […]

[2] = fixed (4 μM) forskolin, decreasing dosages of ligand
[3] = fixed (4 μM) forskolin, decreasing dosages of ligand, FIG. 14D, 14E

| SMILES | 5-HT1A activity from luminescence (cAMP) trend (5-HT1A receptor; [2]) | competition binding curve versus [3H]ketanserin (5-HT2A receptor) | 5-HT1A binding activity from % cAMP levels trend (5-HT1A receptor; [3]) | trend of increasing % cAMP levels with decreasing compound [1] | further results |
| --- | --- | --- | --- | --- | --- |
| CN(C)CCc1c[nH]c2ccccc12 [DMT] | 5-HT1A activity | – | – | – | – |
| CN(C)CCc1c[nH]c2cccc(O)c12 [psilocin] | – | binding | – | – | – |
| NCCc1c[nH]c2ccc(O)cc12 [serotonin] | – | – | 5-HT1A binding activity | not observed | – |
| COc1ccc(C(=O)O)c2[nH]cc(CCN)c12 [compound (VI)] | – | – | mild 5-HT1A binding activity | not observed | – |
| NCCc1c[nH]c2c(C(=O)O)ccc(O)c12 [compound (VII)] | – | – | – | not observed | 5-HT1A binding activity from % cAMP levels trend (5-HT1A receptor; decreasing dosages of compound, FIG. 14F): 5-HT1A binding activity |
| N[C@@H](Cc1c[nH]c2ccccc12)C(=O)O [tryptophan] | lack of 5-HT1A activity | no binding | – | – | – |
